Results from patent US20230219969A1 (priority 2020, published 2023).
Where two headings read alike, the source gives them in different places.

Key:
Rat cortical neurons = experiment: Neurite Outgrowth in Primary Neuronal Cultures Assay (Procedure B); type: cell-based; design: key: A: Statistically significant mean increase as a percent of DMSO control at 10 μM or less; B: No statistically significant mean increase as a percent of DMSO control at 10 μM or less; details: 72 h, percent of DMSO control at 10 μM or less
Source text: Neurite Outgrowth in Primary Neuronal Cultures Assay (Procedure B). Changes in the pattern of neurite outgrowth have been implicated in psychiatric and neurodegenerative disorders as well as traumatic injuries. The discovery of new compounds that can positively affect neuritogenesis are important for developing new therapeutics for neurological diseases. Measurement of neurite outgrowth of rat cortical neurons using an automated image-based assay was used to determine the neuroplastic effects of the compounds of the present invention. The neurite outgrowth assay was performed at Neurofit SAS (France) as described below.
Pregnant Wistar rats (Janvier; France) were used for the study. They were delivered 6 days before their use. Upon arrival at Neurofit animal facility, they were housed one per cage and maintained in a room with controlled temperature (21-22° C.) and a reversed light-dark cycle (12 h/12 h; lights on: 17:30-05:30; lights off: 05:30-17:30) with food and water available ad libitum.
Female Wistar rats of 17 days gestation were killed by cervical dislocation and the fetuses were removed from the uterus. Their brains were placed in ice-cold medium of Leibovitz (L15, Gibco, Fisher bioblock, France). Cortices were dissected and meninges were carefully removed. The cortical neurons were dissociated by trypsinization for 30 min at 37° C. (trypsin-EDTA, Gibco) in presence of 0.1 mg/ml DNAse I (Roche, France). The reaction was stopped by addition of Dulbecco's Modified Eagle Medium (DMEM; Gibco) with 10% of fetal bovine serum (FBS; Gibco). The suspension was triturated with a 10-ml pipette and using a needle syringe 21G and centrifuged at 350×g for 10 min at room temperature. The pellet of dissociated cells was resuspended in a medium consisting of Neurobasal (Gibco) supplemented with 2% B27 supplement (Gibco), 0.5 mM L-Glutamine (Gibco), an antibiotic-antimicotic mixture. Viable cells were counted in a Neubauer cytometer using the trypan blue exclusion test (Sigma). Cells were seeded at a density of 10000 cells per well in 96-well plate (Costar) precoated with poly-L-lysine. Test compound at different concentrations were added to the cultures. Donepezil (positive control) was tested at 250 nM.
After 72 h (3 days) of plating, cultures were fixed with paraformaldehyde in PBS (4%, Sigma) for 30 min at 4° C. Then, cells were successively permeabilized with 0.1% Triton X100 for 30 min, saturated with PBS containing 3% of BSA and were incubated 1 h with anti-beta III tubulin antibody (Sigma) at 1/10 000 in PBS containing 0.5% of BSA. Cells were washed three times with PBS containing 0.5% of BSA, and they were incubated 1 h with goat anti-mouse antibody coupled with AF488 (Invitrogen A11001) diluted at 1/1000 in PBS containing 0.5% of BSA. Finally, nuclei were staining with DAPI 1 mg/ml at 1/1000 in PBS containing 0.5% of BSA. After rinsing with PBS, the plate was filmed and neurite networks were examined and analyzed using High-Content Screening (CellInsight, Thermo Scientific). The average number of neurites per neuron and the average total length of neurites per neuron were the main parameters analyzed. Analysis of data was performed using analysis of variance (ANOVA). The Fisher's Protected Least Significant Difference test was used for multiple comparisons. A p value<0.05 was considered significant. The software used is StatView 5.0 from SAS Institut.
In some embodiments, a compound of the present invention increases the pattern of neurite outgrowth. In some embodiments, a compound of the present invention increases neurite average length compared to a control. In some embodiments, a compound of the present invention increases neurite branch points compared to a control.

5HT2A [1] = biological target: T1, 5HT2A (Homo sapiens, UniProt P28223); experiment: Serotonin 5-HT2A in vitro cellular IPOne agonism assay; type: cell-based; design: host or cells: CHO-K1
Protocol: Serotonin 5-HT2A In Vitro Cellular IPOne Agonism Assay. The 5-HT2A IPOne HTRF assay was performed at Epics Therapeutics S.A. (Belgium, FAST-0505I) using conventional methods. Briefly, CHO-K1 cells expressing human recombinant 5-HT2A receptor grown to mid-log phase in culture media without antibiotics were detached with PBS-EDTA, centrifuged, and resuspended in medium without antibiotics buffer. 20,000 cells are distributed in a 96 well plate and incubated overnight at 37° C. with 5% CO2.
For agonist testing, the medium is removed and 20 μl of assay buffer plus 20 μl of test compound or reference agonist are added in each well. The plate is incubated for 60 min. at 37° C. with 5% CO2.
After addition of the lysis buffer containing IP1-d2 and anti-IP1 cryptate detection reagents, plates are incubated 1-hour at room temperature, and fluorescence ratios are measured according to the manufacturer specification, with the HTRF kit.
(§1) The compounds provided herein were tested in the Serotonin 5-HT2A and 5-HT2C in vitro radioligand binding and cellular IPOne agonism assays. The binding and agonism functional potencies of several compound provided herein compounds (as indicated by their IC50s or EC50s) are shown in Table 11.

5HT2A [2] = biological target: T1, 5HT2A; experiment: Serotonin 5-HT2A in vitro radioligand binding competition assay ([3H]-DOI); design: purchased Epics Therapeutics S.A. (Belgium) FAST-0505B
Protocol: Serotonin 5-HT2A In Vitro Radioligand Binding Competition Assay. The 5-HT2A radioligand binding competition assay was performed at Epics Therapeutics S.A. (Belgium, FAST-0505B) using conventional methods. Briefly, competition binding is performed in duplicate in the wells of a 96 well plate (Master Block, Greiner, 786201) containing binding buffer (optimized for each receptor), membrane extracts (amount of protein/well optimized for each receptor), radiotracer [^3H]-DOI (final concentration optimized for each receptor) and test compound. Nonspecific binding is determined by co-incubation with 200-fold excess of cold competitor. The samples are incubated in a final volume of 0.1 ml at a temperature and for a duration optimized for each receptor and then filtered over filter plates. Filters are washed six times with 0.5 ml of ice-cold washing buffer (optimized for each receptor) and 50 μl of Microscint 20 (Packard) are added in each well. The plates are incubated 15 min on an orbital shaker and then counted with a TopCount™ for 1 min/well.
as §1

[3] = CHO-K1 cells, IPOne HTRF, read-out: 5-HT2A IPOne Agonism Activity
[4] = [3H]-DOI competition, membrane extracts, read-out: 5-HT2A Radioligand Binding Activity

T1 sequence (P28223 whole entry): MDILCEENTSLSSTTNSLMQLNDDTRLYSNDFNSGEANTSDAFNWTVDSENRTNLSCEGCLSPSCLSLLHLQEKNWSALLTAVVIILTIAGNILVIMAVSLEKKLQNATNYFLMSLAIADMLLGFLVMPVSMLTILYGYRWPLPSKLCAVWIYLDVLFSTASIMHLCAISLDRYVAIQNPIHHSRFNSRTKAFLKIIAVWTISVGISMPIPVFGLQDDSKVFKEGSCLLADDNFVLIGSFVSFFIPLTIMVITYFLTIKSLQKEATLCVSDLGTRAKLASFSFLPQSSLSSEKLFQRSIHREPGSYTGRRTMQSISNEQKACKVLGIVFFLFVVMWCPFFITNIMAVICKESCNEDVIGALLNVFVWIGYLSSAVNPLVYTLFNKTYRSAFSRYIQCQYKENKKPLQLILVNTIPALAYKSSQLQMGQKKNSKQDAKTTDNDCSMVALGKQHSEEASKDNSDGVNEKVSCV

| Structure (SMILES) | Increase in Neurite Length (Rat cortical neurons) | Increase in Neurite Number (Rat cortical neurons) | EC50 (5HT2A [1]; [3]) [µM] | IC50 (5HT2A [2]; [4]) [µM] | EC50 (5HT2A [1]) [µM] | IC50 (5HT2A [2]) [µM] |
| --- | --- | --- | --- | --- | --- | --- |
| COc1ccc2c(ccn2CC(C)(C)N(C)C)c1 [Example 1, 1-(5-methoxy-1H-indol-1-yl)-N,N,2-trimethylpropan-2-amine] | A | A | > 10 | > 10 |  |  |
| COc1ccc2c(ccn2CC2(N(C)C)CC2)c1 [Example 2, 1-((5-methoxy-1H-indol-1-yl)methyl)-N,N-dimethylcyclopropan-1-amine] | B | B | > 10 | > 10 |  |  |
| COc1ccc2c(c1)CN(CCN(C)C)C2 [Example 10, 2-(5-methoxyisoindolin-2-yl)-N,N-dimethylethan-1-amine] |  |  | > 10 | 1 to 10 |  |  |
| COc1ccc2c(c1)CCN(CCN(C)C)C2 [Example 11, 2-(6-methoxy-3,4-dihydroisoguinolin-2(1H)-yl)-N,N-dimethylethan-1-amine] |  |  | > 10 | 0.101 to 1 |  |  |
| CN(C)C(C)(C)Cn1ccc2c(F)c(F)ccc21 [Example 12, 1-(4,5-difluoro-1H-indol-1-yl)-N,N,2-trimethylpropan-2-amine] |  |  | > 10 | > 10 |  |  |
| Cc1cn(CC(C)(C)N(C)C)c2ccc(F)cc12 [Example 13, 1-(5-fluoro-3-methyl-1H-indol-1-yl)-N,N,2-trimethylpropan-2-amine] |  |  | 1 to 10 | > 10 |  |  |
| CN(C)C(C)(C)Cn1ccc2cc(F)ccc21 [Example 14, 1-(5-fluoro-1H-indol-1-yl)-N,N,2-trimethylpropan-2-amine] |  |  | > 10 | > 10 |  |  |
| COc1ccc2c(ccn2CC(C)(C)N(C)C)c1F [Example 15, 1-(4-fluoro-5-methoxy-1H-indol-1-yl)-N,N,2-trimethylpropan-2-amine] |  |  | > 10 | > 10 |  |  |
| COc1cc2ccn(CC(C)(C)N(C)C)c2cc1F [Example 16, 1-(6-fluoro-5-methoxy-1H-indol-1-yl)-N,N,2-trimethylpropan-2-amine] |  |  | > 10 | > 10 |  |  |
| COc1cc(F)c2c(ccn2CC(C)(C)N(C)C)c1 [Example 17, 1-(7-fluoro-5-methoxy-1H-indol-1-yl)-N,N,2-trimethylpropan-2-amine] |  |  | > 10 | > 10 |  |  |
| CN(C)C(C)(C)Cn1ccc2c(F)cccc21 [Example 18, 1-(4-fluoro-1H-indol-1-yl)-N,N,2-trimethylpropan-2-amine] |  |  | > 10 | > 10 |  |  |
| CN(C)C(C)(C)Cn1ccc2ccc(F)cc21 [Example 19, 1-(6-fluoro-1H-indol-1-yl)-N,N,2-trimethylpropan-2-amine] |  |  | > 10 | > 10 |  |  |
| CN(C)C(C)(C)Cn1ccc2cccc(F)c21 [Example 20, 1-(7-fluoro-1H-indol-1-yl)-N,N,2-trimethylpropan-2-amine] |  |  | > 10 | > 10 |  |  |
| COc1ccc2c(ccn2CC(C)(C)N(C)C)n1 [Example 21, 1-(5-methoxy-1H-pyrrolo[3,2-b]pyridin-1-yl)-N,N,2-trimethylpropan-2-amine] |  |  | > 10 | > 10 |  |  |
| COc1cc2ccn(CC(C)(C)N(C)C)c2cn1 [Example 22, 1-(5-methoxy-1H-pyrrolo[2,3-c]pyridin-1-yl)-N,N,2-trimethylpropan-2-amine] |  |  | > 10 | > 10 |  |  |
| COc1ncc2c(ccn2CC(C)(C)N(C)C)n1 [Example 23, 1-(2-methoxy-5H-pyrrolo[3,2-d]pyrimidin-5-yl)-N,N,2-trimethylpropan-2-amine] |  |  | > 10 | > 10 |  |  |
| C[C@@H](N)Cn1ccc2cncnc21 [Example 26, (R)-1-(7H-pyrrolo[2,3-d]pyrimidin-7-yl)propan-2-amine] |  |  | 1 to 10 | > 10 |  |  |
| COc1cnc2c(ccn2C[C@@H](C)N)c1 [Example 34, (R)-1-(5-methoxy-1H-pyrrolo[2,3-b]pyridin-1-yl)propan-2-amine] |  |  | 1 to 10 | > 10 |  |  |
| CN[C@H](C)Cn1ccc2cc(OC)cnc21 [Example 35, (R)-1-(5-methoxy-1H-pyrrolo[2,3-b]pyridin-1-yl)-N-methylpropan-2-amine] |  |  | > 10 | > 10 |  |  |
| C[C@@H](N)Cn1ccc2cnccc21 [Example 37, (R)-1-(1H-pyrrolo[3,2-c]pyridin-1-yl)propan-2-amine] |  |  | > 10 | > 10 |  |  |
| CN[C@H](C)Cn1ccc2cnccc21 [Example 38, (R)—N-methyl-1-(1H-pyrrolo[3,2-c]pyridin-1-yl)propan-2-amine] |  |  | > 10 | > 10 |  |  |
| Cc1cn(CC(C)(C)N)c2ccc(F)cc12 [Example 40, 1-(5-fluoro-3-methyl-1H-indol-1-yl)-2-methylpropan-2-amine] |  |  | 1 to 10 | 1 to 10 |  |  |
| CC(C)(N)Cn1ccc2c(F)c(F)ccc21 [Example 41, 1-(4,5-difluoro-1H-indol-1-yl)-2-methylpropan-2-amine] |  |  | 1 to 10 | 1 to 10 |  |  |
| COc1ccc2c(ccn2CC(C)(C)N)c1 [Example 42, 1-(5-methoxy-1H-indol-1-yl)-2-methylpropan-2-amine] |  |  | 1 to 10 | > 10 |  |  |
| CN(C)CC(=O)n1ccc2cc(F)ccc21 [Example 43, 2-(dimethylamino)-1-(5-fluoro-1H-indol-1-yl)ethan-1-one] |  |  | > 10 | > 10 |  |  |
| CN(C)CC(=O)n1ccc2ccccc21 [Example 44, 2-(dimethylamino)-1-(1H-indol-1-yl)ethan-1-one] |  |  | > 10 | > 10 |  |  |
| C[C@H](C(=O)n1ccc2ccccc21)N(C)C [Example 46, (R)-2-(dimethylamino)-1-(1H-indol-1-yl)propan-1-one] |  |  |  |  | > 10 | > 10 |
| C[C@H](C(=O)n1ccc2cc(F)ccc21)N(C)C [Example 48, (R)-2-(dimethylamino)-1-(5-fluoro-1H-indol-1-yl)propan-1-one] |  |  |  |  | > 10 | > 10 |
